Results taken from paper PMC12332266 (Frontiers in Pharmacology, 2025).
Structures can show the parent of a compound that is named as a salt. Where two headings read alike, the source gives them in different places. Each block holds one compound with its values, some of them ahead of it.

What was measured:
[1] = ref extensive literature search, cited from earlier work
[2] = tested on: hiPSC-CM (iCell Cardiomyocytes^2); experiment: Intracellular miRNA expression by RT-qPCR in hiPSC-CM pellets after 72-hour treatment
How it was run: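 After 72-hour treatment and RTCA CardioECR assessment, total RNA from hiPSC-CM pellets was reverse transcribed, pre-amplified and quantified by TaqMan RT-qPCR against a 17-miRNA panel. Triplicates were pooled, so no statistical analysis was performed.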

[3] = tested on: hiPSC-CM (iCell Cardiomyocytes^2); experiment: RTCA CardioECR assessment (impedance and electrophysiology parameters)
How it was run: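 iCell^2 cardiomyocytes on fibronectin-coated ePlates monitored continuously by impedance for cell index, beating rate and amplitude. Field potential duration and spike amplitude were recorded from day 4–6 after monolayer formation. Data were double-normalized to DMSO control and baseline, with variability given as SD.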

[4] = hiPSC-CM, 72-hour treatment, Supplementary Table 1
[5] = hiPSC-CM, 72-hour treatment, change from baseline
[6] = hiPSC-CM, 72-hour treatment, lowest concentration causing at least 20% change from baseline

Structure (SMILES): CC(C)C[C@H](NC(=O)CNC(=O)c1cc(Cl)ccc1Cl)B1OC(=O)C(CC(=O)O)(CC(=O)O)O1 [Ixazomib Citrate]
Cmax total ([1]; Supplementary Table 1): 213 nM
Cmax total ([1]; Table 1): 210 nM
hsa-miR-7-5p fold change, intracellular ([2]; 0.03 µM, 72 h): 2.0
hsa-miR-29a-5p fold change, intracellular ([2]; 0.03 µM, 72 h): 1.5
hsa-miR-96-5p fold change, intracellular ([2]; 0.03 µM, 72 h): 8.8
hsa-miR-126-3p fold change, intracellular ([2]; 0.03 µM, 72 h): 1.7
hsa-miR-133b fold change, intracellular ([2]; 0.03 µM, 72 h): 1.2
hsa-miR-146b-5p fold change, intracellular ([2]; 0.03 µM, 72 h): 1.0
hsa-miR-182-5p fold change, intracellular ([2]; 0.03 µM, 72 h): 1.4
hsa-miR-185-3p fold change, intracellular ([2]; 0.03 µM, 72 h): 1.0
hsa-miR-187-3p fold change, intracellular ([2]; 0.03 µM, 72 h): 1.1
hsa-miR-208b-3p fold change, intracellular ([2]; 0.03 µM, 72 h): 0.9
hsa-miR-7-5p fold change, intracellular ([2]; 0.1 µM, 72 h): 0.3
hsa-miR-29a-5p fold change, intracellular ([2]; 0.1 µM, 72 h): 2.0
hsa-miR-96-5p fold change, intracellular ([2]; 0.1 µM, 72 h): 6.4
hsa-miR-126-3p fold change, intracellular ([2]; 0.1 µM, 72 h): 1.8
hsa-miR-133b fold change, intracellular ([2]; 0.1 µM, 72 h): 25.3
hsa-miR-146b-5p fold change, intracellular ([2]; 0.1 µM, 72 h): 1.9
hsa-miR-182-5p fold change, intracellular ([2]; 0.1 µM, 72 h): 34.9
hsa-miR-185-3p fold change, intracellular ([2]; 0.1 µM, 72 h): 0.4
hsa-miR-187-3p fold change, intracellular ([2]; 0.1 µM, 72 h): 3.1
hsa-miR-208b-3p fold change, intracellular ([2]; 0.1 µM, 72 h): 0.0
hsa-miR-365a-5p fold change, intracellular ([2]; 0.1 µM, 72 h): 44.3
hsa-miR-7-5p fold change, intracellular ([2]; 0.3 µM, 72 h): 6.9
hsa-miR-29a-5p fold change, intracellular ([2]; 0.3 µM, 72 h): 1.7
hsa-miR-96-5p fold change, intracellular ([2]; 0.3 µM, 72 h): 13.0
hsa-miR-126-3p fold change, intracellular ([2]; 0.3 µM, 72 h): 2.7
hsa-miR-133b fold change, intracellular ([2]; 0.3 µM, 72 h): 0.4
hsa-miR-146b-5p fold change, intracellular ([2]; 0.3 µM, 72 h): 7.1
hsa-miR-182-5p fold change, intracellular ([2]; 0.3 µM, 72 h): 8.5
hsa-miR-185-3p fold change, intracellular ([2]; 0.3 µM, 72 h): 2.0
hsa-miR-187-3p fold change, intracellular ([2]; 0.3 µM, 72 h): 1.6
hsa-miR-208b-3p fold change, intracellular ([2]; 0.3 µM, 72 h): 0.8
hsa-miR-365a-5p fold change, intracellular ([2]; 0.3 µM, 72 h): 2.5
hsa-miR-7-5p fold change, intracellular ([2]; 1 µM, 72 h): 12.6
hsa-miR-29a-5p fold change, intracellular ([2]; 1 µM, 72 h): 4.7
hsa-miR-96-5p fold change, intracellular ([2]; 1 µM, 72 h): 13.4
hsa-miR-126-3p fold change, intracellular ([2]; 1 µM, 72 h): 3.1
hsa-miR-133b fold change, intracellular ([2]; 1 µM, 72 h): 0.6
hsa-miR-146b-5p fold change, intracellular ([2]; 1 µM, 72 h): 3.2
hsa-miR-182-5p fold change, intracellular ([2]; 1 µM, 72 h): 5.6
hsa-miR-185-3p fold change, intracellular ([2]; 1 µM, 72 h): 0.9
hsa-miR-187-3p fold change, intracellular ([2]; 1 µM, 72 h): 2.4
hsa-miR-208b-3p fold change, intracellular ([2]; 1 µM, 72 h): 0.9
intracellular miRNA upregulation in hiPSC-CM, in words ([2]; 72-hour treatment, four concentrations per drug): highly upregulated hsa-miR-133b, hsa-miR-182-5pand hsa-miR-365a-5p
miRNAs upregulated at the MEC overall (hiPSC-CM pellet) ([2]; fold change ≥2, 72 h): miR-126-3p, miR-29a-5p, miR-7-5p, miR-96-5p
miRNAs hiPSC-CM pellet, MEC overall ([2]; lowest concentration tested which produced miRNA upregulation (fold change ≥2), 72 h): 0.03 µM
Contractility Amplitude magnitude of effect at MEC ([3]; hiPSC-CM, 72-hour treatment): -94%
Field Potential Duration magnitude of effect at MEC ([3]; hiPSC-CM, 72-hour treatment): -35%
Spike Amplitude (SA) magnitude of effect at MEC ([3]; hiPSC-CM, 72-hour treatment): +75%
Beating Rate magnitude of effect at MEC [3, 4]: +33%
Cell Index magnitude of effect at MEC [3, 4]: -37%
Field Potential Duration MEC ([3]; hiPSC-CM, 72-hour treatment, at least 10% change): 0.03 µM
Contractility Amplitude MEC ([3]; hiPSC-CM, 72-hour treatment, at least 20% change): 0.1 µM
Beating Rate MEC ([3]; hiPSC-CM, 72-hour treatment, at least 20% change, Supplementary Table 1): 0.03 µM
Spike Amplitude (SA) MEC ([3]; hiPSC-CM, 72-hour treatment, at least 40% change): 0.03 µM
Beating rate (BR) magnitude of effect at MEC [3, 5]: +33%
Cell index (CI) magnitude of effect at MEC [3, 5]: −37%
Beating rate (BR) MEC [3, 6]: 0.03 µM
Cell index (CI) MEC [3, 6]: 0.3 µM
RTCA, MEC (BR) ([3]; hiPSC-CM, change ≥20%, Table 2): 0.03 µM
RTCA, MEC (CI) ([3]; hiPSC-CM, change ≥20%, Table 2): 0.3 µM

miRNAs hiPSC-CM pellet, MEC overall [2]: 0.1 µM
Field Potential Duration MEC ([3]; human, 72 h): 0.1 µM
Spike Amplitude (SA) MEC ([3]; human, 72 h): 0.1 µM
Structure (SMILES): CS(=O)(=O)CCNCc1ccc(-c2ccc3ncnc(Nc4ccc(OCc5cccc(F)c5)c(Cl)c4)c3c2)o1 [Lapatinib]
Cmax total ([1]; Supplementary Table 1): 4180 nM
Cmax total ([1]; Table 1): 4180 nM
miRNAs upregulated at the MEC overall (hiPSC-CM pellet) [2]: miR-126-3p, miR-146b-5p, miR-182-5p, miR-187-3p
RTCA, MEC (CI) ([3]; hiPSC-CM, change ≥20%, Table 2): ND (ND – not detected, magnitude of change was lower than 20% for CI/BR)

intracellular miRNA upregulation in hiPSC-CM, in words [2]: smallest fold change
miRNAs hiPSC-CM pellet, MEC overall [2]: 0.3 µM
miRNAs upregulated at the MEC overall (hiPSC-CM pellet) [2]: miR-126-3p
hsa-miR-7-5p fold change, intracellular ([2]; 0.01 µM, 72 h): 1.2
hsa-miR-29a-5p fold change, intracellular ([2]; 0.01 µM, 72 h): 0.5
hsa-miR-126-3p fold change, intracellular ([2]; 0.01 µM, 72 h): 1.4
hsa-miR-133b fold change, intracellular ([2]; 0.01 µM, 72 h): 0.3
hsa-miR-146b-5p fold change, intracellular ([2]; 0.01 µM, 72 h): 0.2
hsa-miR-182-5p fold change, intracellular ([2]; 0.01 µM, 72 h): 0.3
hsa-miR-185-3p fold change, intracellular ([2]; 0.01 µM, 72 h): 0.7
hsa-miR-187-3p fold change, intracellular ([2]; 0.01 µM, 72 h): 0.7
hsa-miR-208b-3p fold change, intracellular ([2]; 0.01 µM, 72 h): 1.0
hsa-miR-365a-5p fold change, intracellular ([2]; 0.01 µM, 72 h): 0.8
hsa-miR-7-5p fold change, intracellular ([2]; 0.1 µM, 72 h): 1.2
hsa-miR-29a-5p fold change, intracellular ([2]; 0.1 µM, 72 h): 0.2
hsa-miR-96-5p fold change, intracellular ([2]; 0.1 µM, 72 h): 0.3
hsa-miR-126-3p fold change, intracellular ([2]; 0.1 µM, 72 h): 3.0
hsa-miR-133b fold change, intracellular ([2]; 0.1 µM, 72 h): 0.2
hsa-miR-146b-5p fold change, intracellular ([2]; 0.1 µM, 72 h): 0.2
hsa-miR-182-5p fold change, intracellular ([2]; 0.1 µM, 72 h): 0.2
hsa-miR-185-3p fold change, intracellular ([2]; 0.1 µM, 72 h): 1.5
hsa-miR-187-3p fold change, intracellular ([2]; 0.1 µM, 72 h): 0.7
hsa-miR-208b-3p fold change, intracellular ([2]; 0.1 µM, 72 h): 1.1
hsa-miR-365a-5p fold change, intracellular ([2]; 0.1 µM, 72 h): 0.2
hsa-miR-7-5p fold change, intracellular ([2]; 0.3 µM, 72 h): 0.5
hsa-miR-29a-5p fold change, intracellular ([2]; 0.3 µM, 72 h): 0.2
hsa-miR-126-3p fold change, intracellular ([2]; 0.3 µM, 72 h): 4.3
hsa-miR-133b fold change, intracellular ([2]; 0.3 µM, 72 h): 0.4
hsa-miR-146b-5p fold change, intracellular ([2]; 0.3 µM, 72 h): 0.2
hsa-miR-182-5p fold change, intracellular ([2]; 0.3 µM, 72 h): 0.7
hsa-miR-185-3p fold change, intracellular ([2]; 0.3 µM, 72 h): 0.7
hsa-miR-187-3p fold change, intracellular ([2]; 0.3 µM, 72 h): 0.5
hsa-miR-208b-3p fold change, intracellular ([2]; 0.3 µM, 72 h): 0.5
hsa-miR-365a-5p fold change, intracellular ([2]; 0.3 µM, 72 h): 0.7
hsa-miR-7-5p fold change, intracellular ([2]; 1 µM, 72 h): 0.9
hsa-miR-29a-5p fold change, intracellular ([2]; 1 µM, 72 h): 0.4
hsa-miR-96-5p fold change, intracellular ([2]; 1 µM, 72 h): 1.4
hsa-miR-126-3p fold change, intracellular ([2]; 1 µM, 72 h): 5.5
hsa-miR-133b fold change, intracellular ([2]; 1 µM, 72 h): 0.3
hsa-miR-146b-5p fold change, intracellular ([2]; 1 µM, 72 h): 0.3
hsa-miR-182-5p fold change, intracellular ([2]; 1 µM, 72 h): 0.4
hsa-miR-185-3p fold change, intracellular ([2]; 1 µM, 72 h): 0.3
hsa-miR-187-3p fold change, intracellular ([2]; 1 µM, 72 h): 0.7
hsa-miR-208b-3p fold change, intracellular ([2]; 1 µM, 72 h): 1.2
Contractility Amplitude MEC ([3]; human, 72 h): 0.1 µM
Spike Amplitude (SA) MEC ([3]; human, 72 h): 0.01 µM
Structure (SMILES): Cc1cn(-c2cc(NC(=O)c3ccc(C)c(Nc4nccc(-c5cccnc5)n4)c3)cc(C(F)(F)F)c2)cn1 [Nilotinib]
Cmax total ([1]; Supplementary Table 1): 840 to 4270 nM
Cmax total ([1]; Table 1): 840 to 4270 nM
Cell index (CI) MEC [3, 6]: ND (ND – not detected, magnitude of change was lower than 20%)
RTCA, MEC (CI) ([3]; hiPSC-CM, change ≥20%, Table 2): ND (ND – not detected, magnitude of change was lower than 20% for CI/BR)
